The supplement of paper PMC10307832

How the values were obtained:
Assay in all cases: relative viability (nuclei count vs DMSO), 5 days (fraction); higher = more cells survive
[1] = compound: CN1CCN(CC1)C2=CC(=C(C=C2)NC3=NC(=C(S3)C(=O)C4=C(C=CC=C4Cl)Cl)N)OC [XMD14-99] + Nc1nc2[nH]cc(CCc3ccc(C(=O)N[C@@H](CCC(=O)O)C(=O)O)cc3)c2c(=O)[nH]1 [Pemetrexed] (partner 0.2 µM)
Summary of the method: (§1)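 Relative viability equals treated-well nuclei counts divided by vehicle-well nuclei counts. Counts came from 4× images of lung cancer cell lines grown in 1536-well plates for 5 days after pin-tool dosing on the day after seeding. Dosing used one drug alone or a fixed anchor-drug dose plus five library-drug doses (not always all listed) in √10 steps, and values are medians of duplicate plates.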

[2] = compound: N[C@@H]1CCCN(c2c(/C=C3\SC(=O)NC3=O)cccc2-c2ccccc2)C1 [AZD1208] + COc1cccc2cc(-c3nc([C@H]4CC[C@H](C(=O)O)CC4)n4ncnc(N)c34)[nH]c12 [OSI-027] (partner 0.5 µM)
Summary of the method: as §1

[3] = compound: N[C@@H]1CCCN(c2c(/C=C3\SC(=O)NC3=O)cccc2-c2ccccc2)C1 [AZD1208] + Nc1ncn([C@H]2C[C@H](O)[C@@H](CO)O2)c(=O)n1 [Decitabine] (partner 2 µM)
Summary of the method: as §1

[4] = compound: N[C@@H]1CCCN(c2c(/C=C3\SC(=O)NC3=O)cccc2-c2ccccc2)C1 [AZD1208] + O=C(c1cc(Cc2n[nH]c(=O)c3ccccc23)ccc1F)N1CCN(C(=O)C2CC2)CC1 [Olaparib] (partner 8 µM)
Summary of the method: as §1

Cell Line | relative viability ([1]; first compound 0.08 µM) | relative viability ([1]; first compound 0.8 µM) | relative viability ([1]; first compound 2.53 µM) | relative viability ([1]; first compound 8 µM) | relative viability ([2]; first compound 0.08 µM) | relative viability ([2]; first compound 0.253 µM) | relative viability ([2]; first compound 0.8 µM) | relative viability ([2]; first compound 2.53 µM) | relative viability ([2]; first compound 8 µM) | relative viability ([3]; first compound 0.08 µM) | relative viability ([3]; first compound 0.253 µM) | relative viability ([3]; first compound 2.53 µM) | relative viability ([3]; first compound 8 µM) | relative viability ([4]; first compound 0.08 µM) | relative viability ([4]; first compound 0.253 µM) | relative viability ([4]; first compound 2.53 µM) | relative viability ([4]; first compound 8 µM) | relative viability ([3]; first compound 0.8 µM) | relative viability ([4]; first compound 0.8 µM)
NCI-H1792 | 1.03 | 0.72 | 0.68 | 0.529 | 0.679 | 0.778 | 0.614 | 0.607 | 0.61 | 0.624 | 0.538 | 0.505 | 0.468 | 0.414 | 0.39 | 0.44 | 0.246 |  | 
LCLC-97TM1 | 0.19 | 0.173 | 0.198 | 0.167 | 0.456 | 0.476 | 0.344 | 0.354 | 0.29 | 0.175 | 0.209 | 0.233 | 0.178 | 0.327 | 0.396 | 0.316 | 0.252 | 0.238 | 0.385
LCLC-103H | 0.467 | 0.475 | 0.426 | 0.468 | 0.485 | 0.371 | 0.378 | 0.382 | 0.376 | 0.715 | 0.654 | 0.723 | 0.743 | 0.774 | 0.798 | 0.81 | 0.786 | 0.707 | 0.811
RERF-LC-KJ | 0.469 | 0.506 | 0.452 | 0.449 | 0.511 | 0.558 | 0.512 | 0.518 | 0.41 | 0.66 | 0.674 | 0.586 | 0.555 | 0.826 | 0.965 | 0.825 | 0.673 | 0.632 | 0.857
BEN | 0.747 | 0.794 | 0.845 | 0.492 | 0.301 | 0.254 | 0.278 | 0.294 | 0.238 | 0.779 | 0.577 | 0.653 | 0.564 | 1.01 | 0.985 | 0.758 | 0.59 | 0.653 | 0.722
NCI-H1666 | 0.853 | 0.857 | 0.781 | 0.764 | 0.779 | 0.829 | 0.682 | 0.826 | 0.775 | 0.735 | 0.713 | 0.743 | 0.629 | 0.762 | 0.766 | 0.693 | 0.768 | 0.635 | 0.673
LC-2-ad | 0.268 | 0.298 | 0.268 | 0.293 | 0.788 | 0.776 | 0.624 | 0.707 | 0.651 | 0.79 | 0.8 | 0.879 | 0.79 | 0.315 | 0.781 | 0.663 | 0.728 | 0.781 | 0.736
SW 1573 | 0.726 | 0.847 | 0.788 | 0.776 | 0.397 | 0.548 | 0.451 | 0.381 | 0.348 | 0.465 | 0.417 | 0.448 | 0.354 | 0.417 | 0.499 | 0.445 | 0.406 | 0.457 | 0.336
ChaGo-K-1 | 0.257 | 0.256 | 0.263 | 0.233 | 0.579 | 0.546 | 0.49 | 0.421 | 0.402 | 0.522 | 0.509 | 0.481 | 0.465 | 0.426 | 0.431 | 0.437 | 0.434 | 0.399 | 0.378
COR-L 105 | 1.14 | 0.855 | 0.965 | 0.788 | 0.613 | 0.745 | 0.542 |  | 0.736 | 0.734 | 0.672 | 0.628 | 0.538 | 0.702 | 0.586 | 0.736 | 0.594 | 0.633 | 0.661
NCI-H1975 | 0.293 | 0.307 | 0.333 | 0.283 | 0.682 | 0.688 | 0.68 | 0.758 | 0.594 | 0.356 | 0.412 | 0.377 | 0.284 | 0.734 | 0.755 | 0.883 | 0.793 | 0.357 | 0.766
NCI-H2009 | 1.07 | 1 | 0.947 | 0.997 | 0.63 | 0.645 | 0.537 | 0.569 | 0.553 | 0.41 | 0.374 | 0.39 | 0.336 | 0.701 | 0.81 | 0.673 | 0.647 | 0.346 | 0.698
SK-LU-1 | 0.98 | 1.02 | 0.942 | 0.684 | 0.283 | 0.337 | 0.285 | 0.316 | 0.248 | 0.586 | 0.621 | 0.622 | 0.511 | 0.446 | 0.419 | 0.448 | 0.436 | 0.629 | 0.367
NCI-H2347 | 0.46 | 0.426 | 0.391 | 0.35 | 0.321 | 0.344 | 0.329 | 0.302 | 0.35 | 0.599 | 0.631 | 0.671 | 0.645 | 0.614 | 0.628 | 0.541 | 0.538 | 0.564 | 0.518
HCC-366 | 0.219 | 0.18 | 0.18 | 0.128 | 0.963 | 0.96 | 0.837 | 0.819 | 0.672 | 0.315 | 0.354 | 0.386 | 0.333 | 0.352 | 0.311 | 0.316 | 0.281 | 0.312 | 0.283
EMC-BAC-2 | 0.437 | 0.449 | 0.403 | 0.368 | 0.364 | 0.37 | 0.346 | 0.296 | 0.315 | 0.932 | 0.94 | 0.992 | 0.812 | 0.517 | 0.536 | 0.472 | 0.448 | 0.903 | 0.494
NCI-H3122 | 0.192 | 0.185 | 0.205 | 0.164 | 0.842 | 0.856 | 0.768 | 0.862 | 0.606 | 0.457 | 0.362 | 0.431 | 0.315 | 0.691 | 0.677 | 0.608 | 0.691 | 0.351 | 0.615
